These results are taken from patent US20210301038A1, “POLYSIALIC ACID AND DERIVATIVES THEREOF, PHARMACEUTICAL COMPOSITION AND METHOD OF PRODUCING POLYSIALIC ACID” (Medizinische Hochschule Hannover (MHH), priority 2018, published 2021).

In data set [1] the test system is layer II/III - layer V synapses in mPFC slices. The data set can be described thus: TBS-induced LTP (fEPSP) in sham- and endoNF-treated mPFC slices from C57BL/6 mice. It counts as cell-based, mouse. The following applies: for LTP level 50-60 min after TBS: endoNF-treated slices, Ro 25-6981 0.3 μM, DP12 1 μg/ml, DP5 1 or 10 μg/ml, sarcosine 0.75 mM, SSR 504734 3 μM. The protocol: For endoNF treatment in C57BL/6J mice, slices were first allowed to recover for 20 min at room temperature (22-24° C.) in recording aCSF and were then placed in a 24-well plate to be incubated in 2 ml of aCSF without (sham) or with addition of endoNF (10 μg/ml) at 35° C. for 2 hours. The 24-well plate was installed in a water bath (ED, Julabo, Seelbach, Germany). For field excitatory postsynaptic potential (fEPSP) recordings in knockout and transgenic mice, mPFC slices were incubated in recording aCSF for >2 hours at room temperature before recordings. For patch-clamp recordings in knockout mice, slices were incubated first at 35° C. for 20 min and then at room temperature for >30 min before recordings started. The aCSF was continuously gassed with 95% O2/5% CO2 during all incubation steps and recordings.
Prefrontal slices (400 μm) were transferred to a submerged-type recording MC membrane chamber (volume 2 ml; Scientific Systems Design Inc., Mississauga, Ontario, Canada) perfused with oxygenated recording ACSF at a flow rate of 4 ml/min and maintained at room temperature (22-25° C.), unless stated otherwise in the “Results”-section given below. Field EPSPs were evoked and recorded using thin-walled glass electrodes (borosilicate glass, wall thickness 0.188, length 100, and outer diameter 1.5 mm, Hilgenberg, Malsfeld, Germany) filled with recording aCSF in 400 μm-thick mPFC slices. In order to stimulate electrically the input fibers of pyramidal cells, the stimulation electrode (0.3-0.5 MΩ) was inserted into layers II/III of the prelimbic cortex. The recording electrode (2-2.5 MΩ) was placed in the vicinity of dendrites and cell bodies of pyramidal neurons in layer V (Huang et al., 2004).
Before LTP induction, basal synaptic transmission was recorded in each slice and the relationship between stimulus intensity and fEPSP slope was measured. Basal fEPSPs were evoked at 0.05 Hz for at least 10 min. The supramaximal slope was determined by gradually increasing the stimulation intensity until a population spike in the fEPSP became first visible. The stimulation intensity was adjusted to elicit a basal fEPSP with a slope of approximately 50% of the supramaximal value.
LTP was induced by application of five trains of theta-burst stimulation (TBS) with an inter-theta-train interval of 20 s (Brennaman et al., 2011). Each train consisted of 8 bursts delivered at 5 Hz. Each burst consisted of four pulses delivered at 100 Hz. Duration of pulses was 0.2 ms. For calculation of the LTP level, the mean fEPSP slope was measured between 50-60 min after TBS delivery, and it was then normalized to mean baseline fEPSP slope during 0-10 min before TBS. Stimulus artifacts in representative fEPSP examples in figures were blanked to facilitate the perception of fEPSPs recorded in the mPFC. Recording and analysis of LTP in St8Sia4^−/− mice was performed in a blind manner.
The enzyme endosialidase NF (endoNF) (Stummeyer et al., 2005) and the short form of polysialic acid composed of 10 or twelve sialic acid residues (DP10 and DP12) were purified as described previously (Keys et al., 2014). Sialic acid (N-acetylneuraminic acid, DP1) and the pentamer of sialic acid sodium salt (DP5) were obtained from EY Laboratories (San Mateo, Calif., USA). DMB-labelled DP2 and DP12, and non-labelled avDP10-9OAc were synthesized in the laboratory of Rita Gerardy-Schahn (see sections Synthesis of DMB-DP2 and DMB-DP12 and Synthesis of avDP10-9OAc, respectively). […]

In data set [2] the test system is dissociated hippocampal cultures (primary neural cells). Nature of the data set: MTT assay of neural cell viability. It counts as cell-based, mouse. As to conditions: 30 to 1000 nM, 48 hours, from 10th day in vitro; DP10 effect at 30, 100 and 300 nM. The protocol: Primary hippocampal cells were dissociated from embryonic mice on embryonic day 18. To prepare the primary neural cultures, pregnant C57/BL6J mice were sacrificed by cervical dislocation. Embryos were decapitated, and the hippocampi isolated from brains under sterile conditions and dissected. Enzymatic digestion by 0.25% trypsin/EDTA solution was followed by separation of the cells in serum-containing medium via trituration (10 passes, 1 ml pipette). The primary cells were seeded onto 96-well plates coated with 100 μg/ml poly-lysine and 20 μg/ml laminin. The plating density was 20,000 cells per well. First, 200 μl Dulbecco's modified Eagle's medium (DMEM) was applied per well (supplemented with 1% penicillin-streptomycin and 1% L-glutamine and 2% B27). After incubation for 2 h at 37° C./5% CO2, the medium was exchanged with the pre-warmed Neurobasal medium including 1% penicillin-streptomycin, 1% L-glutamine, and 2% B27. The cells—predominantly neurons and astrocytes—were incubated at 37° C. in 5% CO2 humidified atmosphere for 10 days before administration of reagents.
The assay was performed as described elsewhere with minor modifications (Khalid et al., 2018). Primary neural cells (see above) grown in a 96-well plate were exposed to drugs/vehicles for 48 h at 37° C./5% CO2. After aspiration of culture media, a washing was done with 100 μl phosphate buffered saline (PBS, pH=7.2). Then, PBS was completely removed, and 100 μl phenol red-free pre-warmed Neurobasal media and 50 μl MTT solution (3-(4,5-dimethylthiazol-2-yl)-2,5-diphenyltetrazolium bromide, 5 mg/ml; dissolved in PBS) were added to each well and plates were incubated for 4 h in an incubator. […] DMSO destroyed the cells and released the formazan, which was detected by optical density value at 560 nm, measured using a plate reader. Optical density values for wells containing cells were corrected by subtracting values measured in cell-free wells prepared and treated in the same way as wells containing control cells.
On the technique in general: Formazan colour is commonly taken as a measure of viable cells.

In the case of (α(2→8)Neu5Ac)12 [DP12], the “LTP level 50-60 min after TBS” value in data set [1] is “full restoration of LTP levels”. Moreover, the “effect on neural cell viability” value in data set [2] is listed as “No effects”.

In the case of `C[C@@H](CN1CCC(Cc2ccccc2)CC1)[C@@H](O)c1ccc(O)cc1.O=C(O)/C=C\C(=O)O` [Ro 25-6981, (αR,βS)-α-(4-hydroxyphenyl)-β-methyl-4-(phenylmethyl)-1-piperidinepropanol maleate], the “LTP level 50-60 min after TBS” value in data set [1] was “full restoration of LTP levels”. Further, in data set [1] (sham-treated slices, 0.3 μM), the LTP magnitude entry is “no effect”. Moreover, the “effect on neural cell viability” value in data set [2] is “no effects”.
